Reference: US20160184338A1, “Bioactive Alkaloid Compositions and Their Medical Uses” (Asiros A/S, priority 2013, published 2016)
Entries after “also recorded” stand apart in the source; their conditions may differ.

Experiments:
IkappaB kinase β (IKK-β) = biological target: T1, IkappaB kinase β (IKK-β) (Homo sapiens, UniProt O14920); assay: IKK-β inhibition, Z'-LYTE Kinase Assay Kit-Ser/Thr 5 Peptide (FRET); type: biochemical
T1 construct: purchased Invitrogen
T1 sequence (O14920 1-756): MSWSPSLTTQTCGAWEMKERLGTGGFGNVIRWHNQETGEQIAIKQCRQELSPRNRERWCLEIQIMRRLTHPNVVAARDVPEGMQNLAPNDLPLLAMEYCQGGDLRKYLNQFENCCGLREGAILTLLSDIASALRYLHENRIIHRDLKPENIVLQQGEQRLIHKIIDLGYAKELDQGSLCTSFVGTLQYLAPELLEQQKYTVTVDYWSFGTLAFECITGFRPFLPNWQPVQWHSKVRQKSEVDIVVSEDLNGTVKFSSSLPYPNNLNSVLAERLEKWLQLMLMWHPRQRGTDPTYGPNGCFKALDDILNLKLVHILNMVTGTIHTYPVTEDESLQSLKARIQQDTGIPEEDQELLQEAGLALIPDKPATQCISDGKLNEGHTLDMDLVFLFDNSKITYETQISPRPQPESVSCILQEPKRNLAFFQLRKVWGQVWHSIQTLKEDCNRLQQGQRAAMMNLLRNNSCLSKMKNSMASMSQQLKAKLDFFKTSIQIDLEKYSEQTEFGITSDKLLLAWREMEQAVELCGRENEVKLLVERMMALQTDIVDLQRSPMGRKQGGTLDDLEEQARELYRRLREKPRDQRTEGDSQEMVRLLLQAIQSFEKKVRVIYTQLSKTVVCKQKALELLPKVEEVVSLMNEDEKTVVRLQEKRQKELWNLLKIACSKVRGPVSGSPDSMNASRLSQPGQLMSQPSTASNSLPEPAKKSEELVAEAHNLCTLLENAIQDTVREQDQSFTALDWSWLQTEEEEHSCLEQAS
Experimental: IKK-β phosphorylates the inhibitory IκB protein associated with NE-κB. Phosphorylation results in the dissociation of IκB from NE-κB, allowing NE-κB to migrate into the cell nucleus where it can activate the transcription of at least 150 genes. The Z9-LYTE™ Kinase Assay Kit-Ser/Thr 5 Peptide is designed to screen for potential IKK-β inhibitory effect using fluorescence resonance energy transfer (FRET) between coumarin and fluorescein for detection by a fluorometer.
The assay was performed according to Z9-LYTE™ KINASE ASSAY KIT-SER/THR 5 PEPTIDE protocol provided by Invitrogen [Invitrogen, Z′-LYTE™ Kinase Assay Kit-Ser/Thr 5 Peptide Protocol, O-062187-r1 US 0405]. Based on the IKK-β certificate of the kit, a kinase concentration of 500 ng/ml was chosen. Km for ATP 9.4 μM was chosen according to an optimization for the LanthaScreen™ kinase assay [http://tools.invitrogen.com/content/sfs/manuals/IKBKB_%28IKK_beta%29_LanthaScreen_Activity.pdf].
(§1) A fluorescence plate reader (Appliskan, Thermo Scientific) was used to detect fluorescence emission signals according to the following parameters:
(§2) Selected alkaloids of the invention prepared in example 1 were tested in 5 times dilutions to establish the 50% inhibitory concentration (IC-50).

PDE4A1A = biological target: T2, PDE4A1A (Homo sapiens, UniProt P27815); assay: PDE4A1A Assay Kit, fluorescence polarization; type: biochemical; conditions: PDE4
T2 construct: purchased BSP Bioscience 60340
T2 sequence (P27815 1-647 isoform P27815-4): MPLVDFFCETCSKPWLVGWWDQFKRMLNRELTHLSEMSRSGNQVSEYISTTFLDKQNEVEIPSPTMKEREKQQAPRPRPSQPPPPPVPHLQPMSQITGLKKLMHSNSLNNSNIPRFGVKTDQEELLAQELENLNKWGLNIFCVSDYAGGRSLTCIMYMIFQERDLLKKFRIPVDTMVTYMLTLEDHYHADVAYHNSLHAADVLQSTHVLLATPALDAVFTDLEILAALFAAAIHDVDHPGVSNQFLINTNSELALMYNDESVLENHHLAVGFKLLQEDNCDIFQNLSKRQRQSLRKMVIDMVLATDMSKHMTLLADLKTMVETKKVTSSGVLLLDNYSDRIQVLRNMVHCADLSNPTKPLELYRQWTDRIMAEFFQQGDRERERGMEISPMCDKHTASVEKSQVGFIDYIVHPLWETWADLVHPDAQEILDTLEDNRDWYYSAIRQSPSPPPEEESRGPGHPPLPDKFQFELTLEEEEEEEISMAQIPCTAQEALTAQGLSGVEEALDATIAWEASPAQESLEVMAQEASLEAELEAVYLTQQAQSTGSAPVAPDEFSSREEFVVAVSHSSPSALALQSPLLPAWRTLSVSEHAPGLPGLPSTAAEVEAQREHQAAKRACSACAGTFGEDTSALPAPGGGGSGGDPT
Experimental: Inhibition of PDE4 blocks hydrolysis of cAMP, thereby increasing levels of cAMP. The PDE4A1A Assay Kit is designed for identification of PDE4A1A inhibitors using fluorescence polarization. The assay is based on the binding of fluorescent AMP generated by PDE4A1A to the binding agent.
The assay was performed according to the protocol of the PDE4A1A assay provided by BSP Bioscience [BSP Bioscience, Data sheet PDE4A1A Assay Kit, Catalog #60340].
as §1, §2

PDE5A = biological target: T3, PDE5A (Homo sapiens, UniProt O76074); assay: PDE5A Assay Kit, fluorescence polarization; type: biochemical; conditions: PDE5
T3 construct: purchased BSP Bioscience 60350
Experimental: Inhibition of PDE5 blocks hydrolysis of cGMP, thereby increasing levels of cGMP. The PDE5A Assay Kit is designed for identification of PDE5A inhibitors using fluorescence polarization. The assay is based on the binding of a fluorescent nucleotide monophosphate generated by PDE5A to the binding agent.
The assay was performed according to the protocol of the PDE5A assay provided by BSP Bioscience [BSP Bioscience, Data sheet PDE5A Assay Kit, Catalog #60350].
as §1
Test Compounds • Selected alkaloids of the invention prepared in example 1 were tested in 5 times dilutions to establish the 50% inhibitory concentration (IC-50).

[1] = test system: hyperlipidemic guinea pigs; assay: Hypocholesterolemic effect in guinea pigs on high fat diet; type: in vivo, guinea pig; conditions: 10 mg/kg oral daily, 28 days
Experimental: Male Dunkin-Hartley guinea pigs weighing 300+/−30 g were acclimated one week before the in-life phase of the experiment. The study diet (Research Diets Inc, New Brunswick, N.J., USA) contained 15% corn oil and 0.25% cholesterol. A daily oral dose of 2000 mg/kg of RAP2 corresponding 9 μg/kg of Ribetril A and 82 μg/kg total Ribetrils as well as 632 μg/kg total Glucoindols was administered orally at a dosing volume of 10 mL/kg. A daily oral dose of 2000 mg/kg of RAP4 corresponding to 112 μg/kg of Ribetril A and 492 μg/kg total Ribetrils as well as 240 μg/kg total Glucoindols was administered orally at a dosing volume of 10 mL/kg. The positive control atorvastatin (10 mg/kg) and vehicle (0.5% methylcellulose) were each administered orally at a dosing volume of 10 mL/kg. […]
After fasting overnight, blood samples were obtained from the retro-orbital sinus of each animal 5 min before initial test substance and/or vehicle administration (pre-treatment) and 24 hours after dosing on days 14 and 28 (post-treatment). The serum total cholesterol (TC), low density lipoprotein cholesterol (LDL-C), high density lipoprotein cholesterol (HDL-C) and triglycerides (TG) were determined by an enzymatic method (Wako total cholesterol, LDL-C, HDL-C & TG diagnostic kit and Toshiba Automatic Analyzer Model TAB-120FR).

[2] = test system: BKS Cg-Lepr db/Lepr db mice; assay: Hypoglycemic effect in NIDDM mice; type: in vivo, mouse; conditions: oral daily 14 days (RAP4 2000 mg/kg, metformin 300 mg/kg), day 14 post dosing
Experimental: Male non-insulin dependent diabetic mellitus (NIDDM) mice (BKS Cg-Lepr db/Lepr db) weighing 50+/−5 g were used at age of 12-13 weeks. A daily oral dose of 2000 mg/kg of RAP4 corresponding to corresponding to 112 μg/kg of Ribetril A and 492 μg/kg total Ribetrils as well as 240 μg/kg total Glucoindols was administered orally at a dosing volume of 10 mL/kg to 12 animals for a total of 14 consecutive days. The positive control of metformin (300 mg/kg) and vehicle (2% Tween 80) were each administered orally at a dosing volume of 10 mL/kg to groups of 6 animals once daily for a total of 14 consecutive days. Serum glucose levels were measured by means of an automated analyzer (TBA-120FR, Toshiba) and serum insulin by ELISA at zero min (pre-treatment) on Day 1, and at 90 min after the daily dosing (post-treatment) on Day 7 and Day 14.

N#C/C(=C\CO[C@@H]1O[C@H](CO)[C@@H](O)[C@H](O)[C@H]1O)COC(=O)/C=C/c1ccc(O)c(O)c1 [Ribetril A, (E)-(E)-2-cyano-4-(((2R,3R,4S,5S,6R)-3,4,5-trihydroxy-6-(hydroxymethyl)tetrahydro-2H-pyran-2-yl)oxy)but-2-en-1-yl 3-(3,4-dihydroxyphenyl)acrylate]
times lower IC-50 as compared to Ribetril B (IkappaB kinase β (IKK-β)): 48 times
times lower IC-50 as compared to Ribetril C (IkappaB kinase β (IKK-β)): 118 times
times lower IC-50 as compared to Ribetril B (PDE4A1A): 5 times
times lower IC-50 as compared to Ribetril C (PDE4A1A): 20 times
times lower IC-50 as compared to Ribetril B (PDE5A): 3 times
times lower IC-50 as compared to Ribetril C (PDE5A): 8 times

CC(C)c1c(C(=O)Nc2ccccc2)c(-c2ccccc2)c(-c2ccc(F)cc2)n1CC[C@@H](O)C[C@@H](O)CC(=O)O [atorvastatin]
effect on triglycerides [1]: did not significantly reduce triglycerides; also recorded: did not display a significant decreasing effect on triglyceride levels

CN(C)C(=N)N=C(N)N [metformin]
serum glucose levels relative to vehicle control [2]: significant decrease
